A short description of data set [1]: Selectivity index, ratio of IC50 for human ovarian epithelial cells to IC50 for human OVCAR8 cells. Format: toxicity. The following applies: human ovarian epithelial cells versus OVCAR8 cells, read-out: Ratio IC50.
Data set [2] concerns OVCAR-8. In words: Antiproliferative activity against human OVCAR8 cells after 72 hrs by SRB assay. The format is functional, cell-based. The following applies: OVCAR-8, 72 h.
The nature of data set [3]: Selectivity index, ratio of IC50 for human ovarian epithelial cells to IC50 for human A2780 cells. The format is toxicity. The following applies: human ovarian epithelial cells versus A2780 cells, read-out: Ratio IC50.
Data set [4] is described as follows: Cytotoxicity against human ovarian epithelial cells assessed as reduction in cell viability after 72 hrs by SRB assay. Format: cell-based. (In general: Sulforhodamine B stains cellular protein and so reports cell mass.)
The nature of data set [5]: Selectivity index, ratio of IC50 for human ovarian epithelial cells to IC50 for human IGROV1 cells. Format: toxicity. The following applies: human ovarian epithelial cells versus IGROV1 cells, read-out: Ratio IC50.
The nature of data set [6]: Drug uptake in human OVCAR8 cells at 20 uM after 48 hrs by Alexa 488 azide dye-based confocal fluorescence microscopy. Format: ADME, cell-based. The following applies: ovcar-8, 48 h.
Data set [7] deals with IGROV-1. Nature of the data set: Antiproliferative activity against human IGROV1 cells after 72 hrs by SRB assay. The following applies: IGROV-1, 72 h. The format is functional, cell-based.
Data set [8] has as its system A2780. In words: Antiproliferative activity against human A2780 cells after 72 hrs by SRB assay. The following applies: A2780, 72 h. Format: functional, cell-based.
Data set [9] has as its system OVCAR-8. In words: Induction of apoptosis in human OVCAR8 cells assessed as cell detachment at 10 to 20 uM incubated for 24 to 48 hrs by phase contrast light microscopy. Format: functional, cell-based.
For data set [10], the system named is OVCAR-8. Nature of the data set: Induction of apoptosis in human OVCAR8 cells assessed as induction of PARP-1 cleavage at 20 uM after 48 hrs by Western blot. The format is functional, cell-based. Background: In western blotting, separated proteins are transferred to a membrane and probed.
Data set [11] deals with OVCAR-8. Nature of the data set: Induction of apoptosis in human OVCAR8 cells assessed as viable cells at 20 uM after 48 hrs by Annexin V-FITC/propidium iodide based flow cytometry (reference value: 84%). Format: functional. The following applies: OVCAR-8, 48 h, read-out: Activity. For orientation: In flow cytometry, cells or beads pass a laser one at a time.
The test system of data set [12] is OVCAR-8. Nature of the data set: Induction of apoptosis in human OVCAR8 cells assessed as cell shrinkage at 10 to 20 uM incubated for 24 to 48 hrs by phase contrast light microscopy. The format is functional, cell-based.
Data set [13] has as its system OVCAR-8. Nature of the data set: Induction of apoptosis in human OVCAR8 cells assessed as induction of caspase 3/7 activity at 20 uM incubated for 48 hrs by caspase-Glo 3/7 reagent based luminescence assay. Format: functional, cell-based.
Data set [14] deals with A2780. Nature of the data set: Induction of apoptosis in human A2780 cells assessed as induction of caspase 3/7 activity at 20 uM incubated for 48 hrs by caspase-Glo 3/7 reagent based luminescence assay. The format is functional, cell-based.
Data set [15] concerns OVCAR-8. Nature of the data set: Cell cycle arrest in human OVCAR8 cells assessed as decrease in G0/G1 phase at 20 uM after 48 hrs by propidium iodide based flow cytometry. Format: functional.
For data set [16], the system named is OVCAR-8. Nature of the data set: Induction of apoptosis in human OVCAR8 cells assessed as nucleus condensation at 10 to 20 uM incubated for 24 to 48 hrs by phase contrast light microscopy. The format is functional, cell-based.
Data set [17] deals with OVCAR-8. Nature of the data set: Induction of apoptosis in human OVCAR8 cells assessed as late apoptotic cells at 20 uM after 48 hrs by Annexin V-FITC/propidium iodide based flow cytometry (reference value: 5%). Format: functional.
Data set [18] relates to OVCAR-8. Nature of the data set: Cell cycle arrest in human OVCAR8 cells assessed as accumulation at subG1 phase at 20 uM after 48 hrs by propidium iodide based flow cytometry. The format is functional.
The subject of data set [19] is IGROV-1. In words: Induction of apoptosis in human IGROV1 cells assessed as induction of caspase 3/7 activity at 20 uM incubated for 48 hrs by caspase-Glo 3/7 reagent based luminescence assay. The format is functional, cell-based.
For data set [20], the system named is OVCAR-8. In words: Induction of apoptosis in human OVCAR8 cells assessed as early apoptotic cells at 20 uM after 48 hrs by Annexin V-FITC/propidium iodide based flow cytometry (reference value: 4%). The format is functional.

These results are taken from ChEMBL document CHEMBL4219178, “Synthesis of (aminoalkyl)cycleanine analogues: cytotoxicity, cellular uptake, and apoptosis induction in ovarian cancer cells” (Bioorg Med Chem Lett, 2018).

Activity calls are given as the source filed them. The calls are words filed in the database; no cut-off is given here.

Broadly, the IC50 is the concentration at which inhibition is half-maximal. Regarding `COc1cc2c3c(c1OC)Oc1ccc(cc1)C[C@@H]1c4c(cc(OC)c(OC)c4Oc4ccc(cc4)C[C@H]3N(C)CC2)CCN1C`, the values for the selectivity ratio in data set [1], in data set [3] and in data set [5] were 3, 5 and 3, respectively. Further, the IC50 came out at 10 µM in [2], 35 µM in data set [4], 14 µM in data set [7] and 7.6 µM in data set [8]. Besides, in [6], the Drug uptake result is “Not Active”.
Consider `C#CCNCc1c2c3c(c(OC)c1OC)Oc1ccc(cc1)C[C@@H]1c4c(cc(OC)c(OC)c4Oc4ccc(cc4)C[C@H]3N(C)CC2)CCN1C`, for which the figures for the selectivity ratio in data set [1], in data set [3] and in data set [5] were 6, 5 and 5, respectively. Further, the result in data set [9], in [10], in data set [12], in data set [13], in data set [14] and in data set [15] was Active. Moreover, the outcome in data set [16], in data set [18] and in [19] was Active. Besides, the IC50 in data set [2] worked out at 5.6 µM; in data set [4], 32 µM; in data set [7] it was 6.1 µM; in [8] it was 6.3 µM. For the same compound, in data set [11], the viability at 20 µM is 50%. Moreover, the Drug uptake result in data set [6] was “Active”. Besides, the values for the Activity in data set [17] and in data set [20] were 38% and 11%, respectively.
Turning to `COc1cc2c3c(c1OC)Oc1ccc(cc1)C[C@@H]1c4c(c(CN(C)C)c(OC)c(OC)c4Oc4ccc(cc4)C[C@H]3N(C)CC2)CCN1C`, the selectivity ratio in data set [1] was 2; in data set [3] it was 3; in [5], 2. For the same compound, the outcome in data set [9], in data set [10], in [12], in [13], in data set [14] and in data set [15] was Active. For the same compound, the result in data set [16], in [18] and in [19] was Active. In addition, the half-maximal inhibitory concentration (IC50) in [2] turned out to be 5.2 µM; in data set [4], 10 µM; in data set [7], 4.4 µM; in data set [8], 3.6 µM. Moreover, the viability at 20 µM in [11] came to 51%. Also, the Activity in data set [17] is 25%; in data set [20], 13%.
